From US20250163064A1, “QUINAZOLINE COMPOUNDS AND USES THEREOF AS INHIBITORS OF MUTANT KRAS PROTEINS” (AMGEN INC., priority 2022, published 2025)
Read-outs that look alike come from different tables or passages of the source.

Key:
[1] = molecular target: His-tagged KRAS G12D protein (Homo sapiens (Human), UniProt P01116, G12D); assay: KRAS G12D TR-FRET Assay; assay type: binding; details: biotinylated KRPep-2d, 10 μM GDP
Procedure, shortened: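 His-KRAS G12D (20 nM working solution) preincubated with compound 30 min at rt in HEPES pH 7.4 buffer with 10 μM GDP, then biotinylated KRPep-2d added for 1 h. Eu-anti-His/streptavidin-d2 TR-FRET 665/615 ratio; IC50 from 4-parameter logistic fit.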

[2] = molecular target: GDP-bound KRAS protein (aa 1-169), G12D and C118A; SOS-mediated nucleotide exchange (Homo sapiens (Human), UniProt P01116, C118A/G12D); assay: KRAS G12D Coupled Nucleotide Exchange Assay; assay type: biochemical; details: 2 h compound pre-incubation, GTP, cRAF AlphaScreen
Sequence of GDP-bound KRAS protein (aa 1-169), G12D and C118A; SOS-mediated nucleotide exchange (P01116 other isoform, or with tags, fused parts or gaps G12D/C118A): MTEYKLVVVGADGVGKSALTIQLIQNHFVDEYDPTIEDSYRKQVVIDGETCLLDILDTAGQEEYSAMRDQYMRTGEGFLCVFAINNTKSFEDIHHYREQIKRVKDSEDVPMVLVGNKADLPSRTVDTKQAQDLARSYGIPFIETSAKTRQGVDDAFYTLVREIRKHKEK
Procedure, shortened: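 Read-out was AlphaScreen, with IC50 derived by 4-parameter logistic fitting. Before that, SOS (aa 564-1049) and GTP drove 30 min exchange on His-tagged KRAS 1-169 carrying G12D and C118A, following a 2 h compound preincubation in 25 mM HEPES pH 7.4, 10 mM MgCl2, 0.01% Triton X-100.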

[3] = test system: Phosphorylation of ERK1/2 in AsPC-1 cells; assay: Phospho-ERK1/2 MSD Assay; assay type: cell-based
Procedure, shortened: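 AsPC-1 cells in 10% FBS RPMI 1640 were treated with a compound dose titration for 2 h at 37° C, then lysed in RIPA buffer with protease and phosphatase inhibitors. Phospho-ERK1/2 was measured by MSD whole-cell lysate immunoassay, and IC50 was derived by 4-parameter logistic fit.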

[4] = Homo sapiens, ASPC1, 2 h, read-out: 2 h p-ERK (AsPC-1 cells), IC50 (μM), AsPC-1 cells, 2 h compound treatment

Sequence of His-tagged KRAS G12D protein (P01116-2 other isoform, or with tags, fused parts or gaps G12D): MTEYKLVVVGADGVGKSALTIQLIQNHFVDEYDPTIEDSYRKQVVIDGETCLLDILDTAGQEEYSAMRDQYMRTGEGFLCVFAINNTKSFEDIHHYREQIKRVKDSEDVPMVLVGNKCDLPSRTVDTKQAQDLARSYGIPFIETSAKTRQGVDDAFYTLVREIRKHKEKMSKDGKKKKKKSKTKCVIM

| IC50 [1] [nM] | IC50 [2] [nM] | IC50 ([3]; read-out: 2 h p-ERK (AsPC-1 cells), IC50, AsPC-1 cells, 2 h compound treatment) [µM] | IC50 [3, 4] [µM] | SMILES |
| --- | --- | --- | --- | --- |
| 3 | 1 | 0.025 |  | CCc1cc2c(N3CCOCC(C)(O)C3)nc(OC[C@@]34CCCN3C[C@H](F)C4)nc2c(F)c1-c1ccc(F)c2sc(N)c(C#N)c12 (stereo partly drawn) [Example 62, 2-Amino-4-(6-ethyl-8-fluoro-2-(((2R,7aS)-2-fluorotetrahydro-1H-pyrrolizin-7a(H)-yl)methoxy)-4-(6-hydroxy-6-methyl-1,4-oxazepan-4-yl)quinazolin-7-yl)-7-fluorobenzo[b]thiophene-3-carbonitrile] |
| 8 | 10 |  | 0.402 | N#Cc1c(N)sc2c(F)ccc(-c3c(Cl)cc4c(N5CCCC6(COC6)C5)nc(OC[C@@]56CCCN5C[C@H](F)C6)nc4c3F)c12 [Example 42, 2-Amino-4-(6-chloro-8-fluoro-2-(((2R,7aS)-2-fluorotetrahydro-1H-pyrrolizin-7a(5H)-yl)methoxy)-4-(2-oxa-6-azaspiro[3.5]nonan-6-yl)quinazolin-7-yl)-7-fluorobenzo[b] thiophene-3-carbonitrile] |
| 5 | 3 |  | 0.05 | C=Cc1cc2c(N3CCOCC(C)(O)C3)nc(OC[C@@]34CCCN3C[C@H](F)C4)nc2c(F)c1-c1ccc(F)c2sc(N)c(C#N)c12 (stereo partly drawn) [Example 61, 2-Amino-7-fluoro-4-(8-fluoro-2-(((2R,7aS)-2-fluorotetrahydro-1H-pyrrolizin-7a(5H)-yl)methoxy)-4-(6-hydroxy-6-methyl-1,4-oxazepan-4-yl)-6-vinylquinazolin-7-yl)benzo[b]thiophene-3-carbonitrile] |
| 6 | 3 |  | 0.148 | N#Cc1c(N)sc2c(F)ccc(-c3c(Cl)cc4c(N5CCOCC(O)(C(F)F)C5)nc(OC[C@@]56CCCN5C[C@H](F)C6)nc4c3F)c12 (single isomer, unassigned) [Example 46] |
